The assay concerns the target MCHR1. The experiment in a line: MCHR1 antagonist potency, late-stage follow-up, selectivity assay for GPR7 antagonist project, cell-based, fluorescence, dose response, set 2 (AID 504889). To be noted: MCHR1-expressing cells, antagonist mode.

Active and inactive are the calls of the source. No rule for the calls is given here.

In the case of `COc1ccc(Oc2c(Br)cnn(-c3ccc(C)cc3)c2=O)cc1`, the IC50 (usually the concentration that gives 50% inhibition) runs as follows: (run 1) “inactive”; (run 2) “inactive”.
In the case of `Cc1ccc(-n2ncc(Cl)c(Oc3ccc(CO)cc3)c2=O)cc1`, the IC50 was > 20 µM (inactive) (run 1) and > 20 µM (inactive) (run 2).
Turning to `COc1ccc(Oc2c(Cl)cnn(-c3ccc(C(C)(C)C)cc3)c2=O)cc1`, the IC50 is 2.7 µM (run 1) and 8.99 µM (run 2).
`COc1ccc(Oc2c(Cl)cnn(-c3ccc(C(C)C)cc3)c2=O)cc1`: the IC50 is 3.1 µM (run 1) and 4.3 µM (run 2).
Consider `COc1ccc(Oc2c(-c3cccs3)cnn(-c3ccc(C)cc3)c2=O)cc1`, for which the IC50 reads like this: (run 1) > 20 µM (inactive); (run 2) > 20 µM (inactive).
As for `CCOc1ccc(Oc2c(Cl)cnn(-c3ccc(C)cc3)c2=O)cc1`, the IC50 result (run 1) is “inactive”. Further, the IC50 (run 2) was 8.62 µM.
In the same order, the values of `COc1ccc(Oc2c(Cl)cnn(-c3cccc(C(C)C)c3)c2=O)cc1` are 1.72 µM and 2.37 µM.
For `COc1ccc(Oc2c(C#N)cnn(-c3ccc(C(C)C)cc3)c2=O)cc1` the same measures were 7.47 µM and 7.6 µM.
Consider `COc1ccc(Oc2c(Cl)cnn(-c3ccc(C)cc3)c2=O)cc1`, for which the IC50 result by setting is: (run 1) “inactive”; (run 2) “inactive”.
For the compound `COC(=O)c1cnn(-c2ccc(C(C)C)cc2)c(=O)c1Oc1ccc(OC)cc1`, the IC50 is, setting by setting: (run 1) 6.89 µM; (run 2) 4.95 µM.
In the same order, the values of `Cc1ccc(-n2ncc(Cl)c(Oc3ccc(OC(F)(F)F)cc3)c2=O)cc1` are 2.9 µM and 4.98 µM.
For the compound `COc1ccc(Oc2c(Cl)cnn(-c3cc(C)cc(C)c3)c2=O)cc1`, the IC50 (run 1) was 3.94 µM, the half-maximal inhibitory concentration (IC50) (run 2) is 5.04 µM and the IC50 (run 3) was 2.68 µM.
In the case of `COc1ccc(Oc2c(Cl)cnn(-c3cccc(C)c3)c2=O)cc1`, the IC50 (run 1) is 5.39 µM and the IC50 (run 2) is 6.79 µM.
For `CCc1ccc(-n2ncc(Cl)c(Oc3ccc(OC)cc3)c2=O)cc1` the same measures were 3.92 µM and “inactive”.
In the same order, the values of `COc1ccc(Oc2c(Cl)cnn(-c3cccc4ccccc34)c2=O)cc1` are 8.39 µM and 4.46 µM.
Regarding `Cc1ccc(-n2ncc(Cl)c(Oc3ccc(C(F)(F)F)cc3)c2=O)cc1`, the IC50 by setting is: (run 1) 5.51 µM; (run 2) 8.4 µM.
In the same order, the values of `COc1ccc(Oc2c(-c3ccccc3)cnn(-c3ccc(C)cc3)c2=O)cc1` are “inactive” and > 20 µM (inactive).
In the same order, the values of `COc1ccc(Oc2c(C=O)cnn(-c3ccc(C(C)C)cc3)c2=O)cc1` are 4.78 µM and 5.15 µM.
For `COc1ccc(Oc2c(C)cnn(-c3ccc(C(C)C)cc3)c2=O)cc1` the same measures were 9.81 µM and 8.05 µM.
For `CCc1ccc(Oc2c(Cl)cnn(-c3ccc(C)cc3)c2=O)cc1`, the IC50 is, setting by setting: (run 1) 5.02 µM; (run 2) 3.09 µM.
In the case of `COc1ccc(Oc2c(Cl)cnn(-c3ccc(C(C)C)c(C)c3)c2=O)cc1`, the half-inhibitory concentration (IC50) was 1.96 µM (run 1) and 1.71 µM (run 2).
As to `COc1ccc(Oc2c(-c3ccco3)cnn(-c3ccc(C)cc3)c2=O)cc1`, the IC50 result (run 1) was “inactive”. In addition, the IC50 (run 2) is > 20 µM (inactive).
In the same order, the values of `COc1ccc(Oc2c(C3CC3)cnn(-c3ccc(C)cc3)c2=O)cc1` are 5.41 µM and “inactive”.
Regarding `CCC(C)c1ccc(-n2ncc(Cl)c(Oc3ccc(OC)cc3)c2=O)cc1` (centres undefined), the concentration for half-maximal inhibition (IC50) runs as follows: (run 1) 2.17 µM; (run 2) 4.71 µM.
